# According to patent publication US20150045387A1, “Bi-Aromatic And Tri-Aromatic Compounds As NADPH Oxidase 2 (Nox2) Inhibitors” (The University of Surrey, priority 2011, published 2015):
# Key:
# HPMEC = test: NADPH-dependent O2.- production by homogenates of TNFα-stimulated HPMEC, lucigenin-chemiluminescence; assay type: cell-based, human; conditions: HPMEC stimulated with TNFα 100 U/ml 45 min, homogenates 0.1 mg/well, NADPH 100 μM
# Method: (§1) A) Differentiate human neutrophils (HL-60 cells, 5×10^4 cells/well) were stimulated with PMA (100 ng/ml) for 5 min in the presence or absence of LMH036 at the dose indicated. O2.^− production was measured by lucigenin-chemiluminescence. B) HPMEC were stimulated with TNFα (100 U/ml) for 45 min. Cells were immediately frozen in liquid nitrogen and homogenised. Cell homogenates (0.1 mg/well) were pre-incubated with LMH036 at the indicated dose for 5 min and measured for the O2.^− production in the presence of NADPH (100 μM) by lucigenin-chemiluminescence.
# (§2) O2^− production by different cell types was measured using lucigenin (5 μM)-chemiluminescence. A microplate luminometer (LumiStar, BMG) was used, which allows the examination of 96 samples at the same time with kinetic reading facilities. […] Dark-adapted lucigenin (5 μM) was added into the well through an auto-dispenser located in the dark chamber just before reading. The light emission was recorded over a 60 minute period and expressed as arbitrary MLU measured by the illuminometer. Each experiment was performed in triplicate and the mean of 3 blank readings was subtracted from each corrected value for each reading. […]
# O2^− production was also studied using total cell homogenate (for the endothelial cells and the fibroblasts). […] Soluble protein concentration was determined using a kit from Bio-Rad Laboratories Ltd. (Hertfordshire, U.K.). […]
# [1] = tested on: Differentiate human neutrophils (HL-60 cells); test: PMA-stimulated O2.- production by differentiated human neutrophils, lucigenin-chemiluminescence; assay type: cell-based; conditions: HL-60 neutrophils, PMA 100 ng/ml for 5 min
# Method: as §1
# HL-60 is a human promyelocytic leukaemia cell line. […]
# as §2
compound,measurement,setting,value
"OCc1cc(-c2ncc(-c3cccc(O)c3O)o2)ccc1O [LMH036, 3-(2-(4-hydroxy-3-(hydroxymethyl)phenyl)oxazol-5-yl)benzene-1,2-diol]",O2.- production by human cells,HPMEC,inhibitory effect
same,O2.- production by human cells,[1],inhibitory effect
